This is an account of results in article PMC9268243, “Metabolic Behaviors of Aconitum Alkaloids in Different Concentrations of Aconiti Lateralis Radix Praeparata and Effects of Aconitine in Healthy Human and Long QT Syndrome Cardiomyocytes” (Molecules, 2022).

For test [1], the system named is normal hiPSC-CMs. Kind of test: Whole-cell current-clamp action potential recording, normal hiPSC-CMs. In kind it is cell-based, human. To be noted: normal hiPSC-CMs, 0.05, 0.5 and 5 μM, 1 Hz stimulation. An excerpt: (§1) Standard patch-clamp techniques were used to record action potentials, and L-type calcium currents. Composition of intracellular fluid and extracellular fluid were shown in Table 7 and Table 8, respectively. The signal was amplified using an HEKA EPC-10 patch-clamp amplifier (HEKA, Electronics, Ludwigshafen, Germany) and low-pass filtered at 5 kHz. Patch pipettes were fabricated from glass capillaries using a Sutter P-97 microelectrode puller (Novato, CA, USA) and the tips were heat polished with a microforge (NARISHIGE MF-900) to gain a resistance of 2–5 MΩ. Data acquisition was achieved using HEKA Patchmaster (V2x73.2). Data analysis and fit were performed using Clamfit and Graphpad Prism 6.0. The experiment was conducted at 37 °C. One cell can test one or more drugs, or multiple concentrations of the same drug but needs to be rinsed with extracellular fluid between each test. Nifedipine (Sigma) was used as a positive control to ensure cell quality. External solution containing 0.1% DMSO was applied as vehicle to establish the baseline. Recording was done at a temperature-controlled room of 35–37 degrees Celsius.
(§2) Isoproterenol, nifedipine, and AC were purchased from Sigma-Aldrich, which were resolved in DMSO (Sigma-Aldrich, D2650). Drug compounds final concentration were AC (0.05, 0.5,5 μM), nifedipine (1 μM), isoproterenol (3 μM), respectively. […]

The next test concerns LQTS hiPSC-CMs. In words: Whole-cell current-clamp action potential recording, LQTS hiPSC-CMs. In kind it is cell-based, human. The following applies: LQTS hiPSC-CMs, 0.05, 0.5 and 5 μM, 1 Hz stimulation.
Source text: as §1, §2

Test [2] relates to normal hiPSC-CMs. In words: Ca2+ imaging of calcium transients, normal hiPSC-CMs. In kind it is cell-based, human. The following applies: compared with the control group. As to the method: Dissociated day 30–33 post-differentiation hiPSC-CMs (healthy and LQT specific patient) were reseeded Matrigel-coated plate in HELP4004 (HELP) and were treated with 5 μM Fluo-3 AM and 0.02% Pluronic (Life Technologies) in DMEM/F12 (Gibco) for 60 min at 37 °C. Cells were washed with DMEM/F12 without fluorochrome solution afterwards for 30 min, replaced the solution with Tyrode’s solution. Ca^2+ imaging was conducted using Olympus IX71 confocal microscope (Olympus IX71, Tokyo, Japan) and analyzed using Olympus imaging software. Ca^2+ spontaneous transients were obtained using a single cell line scan mode at 37 °C.
Isoproterenol, nifedipine, and AC were purchased from Sigma-Aldrich, which were resolved in DMSO (Sigma-Aldrich, D2650). Drug compounds final concentration were AC (0.05, 0.5,5 μM), nifedipine (1 μM), isoproterenol (3 μM), respectively. Dilutions were prepared within 60 min of treatment. All the compound solutions were subjected to regular 10 min ultrasound and oscillations to ensure that compounds were completely dissolved. Equal amounts of DMSO (0.1%) were used as the vehicle controls.

The subject of a further test is myocardial cells. On the set-up: method as in our previous work. To be noted: low doses 5–20 nmol/L, ref our previous work; cited from earlier work.

Each structure is given as a SMILES string.

Take `CCN1C[C@]2(COC)[C@H](O)C[C@H](OC)[C@@]34[C@@H]5C[C@@]6(O)[C@H](OC(=O)c7ccccc7)[C@@H]5[C@@](OC(C)=O)([C@@H]([C@H](OC)[C@H]23)[C@@H]14)[C@@H](O)[C@@H]6OC` [AC, aconitine]: the APD50 entry in the test with normal hiPSC-CMs [1] and in the test on LQTS hiPSC-CMs was “concentration-dependently shortened” in each case. Further, in the test on normal hiPSC-CMs [2], the “amplitude and frequency of calcium transient” value was “no significant effect”. Also, the mitochondrial energy metabolism entry in the test on myocardial cells was “could improve mitochondrial energy metabolism”.
